Values joined by “and” are separate entries in the source; they are usually repeats but may differ in a detail not shown here. Equal entries are not always repeated.
Columns and labels:
[1] = In vivo testing of laser drilled melt extruded tube containing two sets of microparticles formulated with F108, plasma concentrations; design: species or system Sprague-Dawley rats; settings: rat, subcutaneous laser drilled extruded tube implant, TMC278 109 mg/kg, compound 1 78 mg/kg, individual animals 1-4
Description: The laser drilled melt extruded tube was prepared as described above in example 10. The microparticles were prepared by the spinning disc method using a 3% (w/w) polymer/acetone solution. Two sets of microparticles were prepared. The target composition of one set was 70% (w/w) TMC278, 20% (w/w) PLGA 50/50 (Lakeshore Biomaterials IVHFIP=0.79 dl/g), and 10% (w/w) F108 (BASF). The target composition of the other set of microparticles was 70% (w/w) compound 1, 20% (w/w) PLGA 50/50 (Lakeshore Biomaterials IVHFIP=0.18 dl/g), and 10% (w/w) F108. The F108 was added to the polymer solution.
The size range of the microparticles was determined by randomly selecting a sample of microparticles and placing them on the stage of an optical microscope and using a ruler to measure the various sizes of the microparticles in the randomly selected sample. The size range of the TMC278 and compound 1 microparticles was 10-100 microns and 20-100 microns, respectively. Microparticles were mixed as described in example 9. Approximately 133 mg of the microparticle mixture was introduced into tubes using a spatula to transfer the contents.
The prepared tubes were implanted into the subcutaneous space on the back of four male Sprague-Dawley rats weighing between 250-350 grams. The dose of TMC278 and compound 1 was 109 mg/kg and 78 mg/kg, respectively. The tail vein was sampled at pre-determined time points. Blood samples were immediately centrifuged to extract the plasma, plasma was analyzed for compound 1 and TMC278 by LC/MS/MS. The lower limit of quantitation for TMC278 and compound 1 was 0.4 ng/ml and 2 ng/ml, respectively.

[2] = Solubility experiments of TMC278 in water; type: physicochemical
Excerpt: The solubility of TMC278 dramatically increases at pH=2. […] The use of an acidic binder gel that can effectively lower pH, can increase the rate of elution of TMC278 from the polymer matrix. Increasing the concentration of the acidic polymer in the gel can depress the pH even further (Table 1).

[3] = In vivo testing of laser drilled melt extruded tube containing two sets of microparticles, plasma concentrations; settings: rat, subcutaneous laser drilled extruded tube implant, TMC278 139 mg/kg, compound 1 64 mg/kg, individual animals 1-4
Description: Tubes with inner diameter of 4.5 mm were extruded from polydioxanone (IVHFIP=1.99 dl/g) using a ¾ inch single screw extruder fitted with a tube die. The dimensions of the tube were monitored using an in-line laser diameter measuring system and maintained using a puller. Following the extrusion the tubes were laser drilled. In preparation for the laser drilling a mask design was prepared that located the holes 260 microns apart from one another. Scanning electron microscopy was used to size the inner and outer diameter of the holes. […] The microparticles were prepared as described in Example 9. Approximately 133 mg of the microparticle mixture was introduced into the tubes.
(§1) The prepared tubes were implanted into the subcutaneous space on the back of four male Sprague-Dawley rats weighing between 250-350 grams. The dose of TMC278 was 139 mg/kg and the dose of compound 1 was 64 mg/kg. The tail vein was sampled at pre-determined time points. Blood samples were immediately centrifuged to extract the plasma, and plasma was analyzed for compound 1 and TMC278 by LC/MS/MS. The lower limit of quantitation for TMC278 and compound 1 was 0.4 ng/ml and 2.0 ng/ml, respectively.

[4] = In vivo testing of electrostatically spun tube containing two sets of microparticles, plasma concentrations; design: species or system Sprague-Dawley rats; settings: rat, subcutaneous electrospun tube implant, TMC278 139 mg/kg, compound 1 64 mg/kg, individual animals 1-4
Description: Tubes were electrostatically spun from a 100 mg/ml polydioxanone (IVHFIP=1.99 dl/g) hexafluoroisopropanol solution. A 4 mm mandrel was used to provide a consistent inner diameter of 4 mm. The rotational speed of the mandrel was 400 rpm, the charging voltage range was 20/−10 kV, and the pump flow rate was 10 ml/hour. The resulting wall thickness was 500 microns. Fiber diameters were 1-2 microns and the average pore size formed from the network of fibers was 20 microns as determined by Scanning Electron Microscopy.
The microparticles were prepared by the spinning disc method using a polymer/acetone solution with a concentration ranging from 3-4% (w/w). Two sets of microparticles were prepared. The target composition of one set was 70% (w/w) TMC278 and 30% (w/w) PLGA 50/50 (Lakeshore Biomaterials IVHFIP=0.79 dl/g). The target composition of the other set of microparticles was 70% (w/w) of compound 1 (=compound 14 of WO01/25240) and 30% (w/w) PLGA 50/50 (Lakeshore Biomaterials IVHFIP=0.18 dl/g). This compound 1 has the following structure and will be referred to hereinafter as compound 1:
Approximately 133 mg of the microparticle mixture was introduced into the electrostatically prepared tubes using a spatula.
as §1, with “plasma,” for “plasma, and”, “quantitation was 0.4 ng/ml and 2 ng/ml” for “quantitation”, “1,” for “1 was 0.4 ng/ml and 2.0 ng/ml,”

[5] = male, Sprague-Dawley, plasma, subcutaneous, 7 day
[6] = male, Sprague-Dawley, plasma, subcutaneous, 14 day

Cc1cc(/C=C/C#N)cc(C)c1Nc1ccnc(Nc2ccc(C#N)cc2)n1 [TMC278, rilpivirine]
plasma concentration ([1]; 3 hour): 2.12 ng/mL and 1.40 ng/mL and 2.42 ng/mL and 1.02 ng/mL
plasma concentration ([1]; 1 day): 0.797 ng/mL and 0.522 ng/mL and 0.939 ng/mL and <0.4 ng/mL
plasma concentration ([1]; 3 day): <0.4 ng/ml (2×) and 0.521 ng/ml
plasma concentration ([1]; 7 day): <0.4 ng/ml (2×) and 0.405 ng/ml
plasma concentration ([1]; 14 day): <0.4 ng/mL and 0.478 ng/mL and 0.664 ng/mL
plasma concentration ([1]; 28 day): 2.13 ng/mL and 0.539 ng/mL and 1.13 ng/mL and 2.19 ng/mL
plasma concentration ([1]; 35 day): 2.17 ng/mL and 0.744 ng/mL and 1.48 ng/mL and 2.48 ng/mL
concentration at 3 day ([1]; male, Sprague-Dawley, plasma, 3 day): 0.485 ng/mL
concentration at 7 day ([1]; male, Sprague-Dawley, plasma, 7 day): < 0.4 ng/mL
concentration at 14 day ([1]; male, Sprague-Dawley, plasma, 14 day): 0.6 ng/mL
solubility in water at pH of 2 relative to pH of 7 ([2]; pH 2 vs pH 7): 950 times
solubility in water ([2]; water): extreme insolubility
plasma concentration ([3]; 3 hour): 0.551 ng/mL and 1.42 ng/mL and 2.51 ng/mL and 1.61 ng/mL
plasma concentration ([3]; 1 day): <0.4 ng/ml (2×) and 0.432 ng/ml and 1.22 ng/ml
plasma concentration ([3]; 3 day): <0.4 ng/ml (3×) and 1.14 ng/ml
plasma concentration ([3]; 7 day): 0.4 ng/mL and 0.695 ng/mL and <0.4 ng/mL
plasma concentration ([3]; 14 day): <0.4 ng/mL and 0.425 ng/mL and 0.456 ng/mL
plasma concentration ([3]; 28 day): <0.4 ng/mL and 0.451 ng/mL and 1.36 ng/mL and 0.773 ng/mL
plasma concentration ([3]; 35 day): <0.4 ng/mL and 0.403 ng/mL and 2.11 ng/mL and 0.881 ng/mL
concentration at 7 day [3, 5]: < 0.4 ng/mL
concentration at 14 day [3, 6]: < 0.4 ng/mL
plasma concentration ([4]; 3 hour): 0.562 ng/mL and 0.462 ng/mL and 0.576 ng/mL
plasma concentration ([4]; 1 day): 0.441 ng/mL and <0.4 ng/mL and 0.575 ng/mL
plasma concentration ([4]; 3 day): 0.518 ng/mL and <0.4 ng/mL and 0.549 ng/mL
plasma concentration ([4]; 7 day): 0.645 ng/ml and <0.4 ng/ml (2×)
plasma concentration ([4]; 14 day): <0.4 ng/ml (2×) and 0.424 ng/ml
plasma concentration ([4]; 28 day): <0.4 ng/ml (2×) and 0.475 ng/ml
plasma concentration ([4]; 35 day): 0.527 ng/mL and 0.769 ng/mL and 0.400 ng/mL
concentration at 3 h ([4]; male, Sprague-Dawley, plasma, subcutaneous, 3 hour): 0.505 ng/mL
concentration at 1 day ([4]; male, Sprague-Dawley, plasma, subcutaneous, 1 day): < 0.4 ng/mL
concentration at 3 day ([4]; male, Sprague-Dawley, plasma, subcutaneous, 3 day): < 0.4 ng/mL
concentration at 7 day [4, 5]: 0.421 ng/mL
concentration at 14 day [4, 6]: < 0.4 ng/mL
concentration at 28 day ([4]; male, Sprague-Dawley, plasma, subcutaneous, 28 day): < 0.4 ng/mL
concentration at 35 day ([4]; male, Sprague-Dawley, plasma, subcutaneous, 35 day): < 0.4 ng/mL

From US11395867B2, “Degradable removable implant for the sustained release of an active compound” (Janssen Sciences Ireland Unlimited Company, priority 2009, dated 2022)
